From PubChem BioAssay AID1259407 (Chemical Carcinogenesis Research Information System (CCRIS), 2018) come the findings set out here.

In the data set the test system is CCRIS mutagenicity, Ames/micronucleus/aberration tests. Nature of the data set: CCRIS mutagenicity studies.
Where [1] appears, read: Test System: AMES SALMONELLA TYPHIMURIUM, Strain/Indicator: TA98, Metabolic Activation: NONE, Method: STANDARD PLATE.
Setting [2] is: Test System: AMES SALMONELLA TYPHIMURIUM, Strain/Indicator: TA100, Metabolic Activation: NONE, Method: PREINCUBATION
Setting [3] is: Test System: AMES SALMONELLA TYPHIMURIUM, Strain/Indicator: TA100, Metabolic Activation: NONE, Method: STANDARD PLATE.
Setting [4] is: Test System: AMES SALMONELLA TYPHIMURIUM, Strain/Indicator: TA102, Metabolic Activation: NONE, Method: STANDARD PLATE.
[5] abbreviates: Test System: AMES SALMONELLA TYPHIMURIUM, Strain/Indicator: TA104, Metabolic Activation: NONE, Method: STANDARD PLATE.

SMILES strings stand for the structures. Calls of active or inactive are those of the source. No rule for the calls is given here.

As to `Cc1cc(C(C)(C)C)c(O)c(C(C)(C)C)c1`, the mutagenic call reads like this: (End Point: IN VITRO CHROMOSOMAL ABERRATIONS, Test System: CHINESE HAMSTER OVARY CELLS, Metabolic Activation: NONE) “inactive; negative”; (End Point: IN VITRO CHROMOSOMAL ABERRATIONS, Test System: CHINESE HAMSTER OVARY CELLS, Metabolic Activation: RAT, LIVER, S-9, AROCLOR 1254) “inactive; negative; dose-related increase but it was not significant”; (Test System: AMES SALMONELLA TYPHIMURIUM, Strain/Indicator: TA97, Metabolic Activation: NONE, Method: STANDARD PLATE) “inactive; negative”; (Test System: AMES SALMONELLA TYPHIMURIUM, Strain/Indicator: TA97, Metabolic Activation: RAT, LIVER, S-9, AROCLOR 1254, Method: STANDARD PLATE) “inactive; negative”; (Test System: AMES SALMONELLA TYPHIMURIUM, Strain/Indicator: TA97, Metabolic Activation: RAT, LIVER, S-9, AROCLOR, Method: STANDARD PLATE) “inactive; negative”; (Test System: AMES SALMONELLA TYPHIMURIUM, Strain/Indicator: TA98, Metabolic Activation: NONE, Method: PREINCUBATION) “inactive; negative”. Further, the mutagenic call by setting is: under setting [1], “inactive; negative”; (Test System: AMES SALMONELLA TYPHIMURIUM, Strain/Indicator: TA98, Metabolic Activation: RAT, LIVER, S-9, AROCLOR 1254, Method: STANDARD PLATE) “inactive; negative”; (Test System: AMES SALMONELLA TYPHIMURIUM, Strain/Indicator: TA98, Metabolic Activation: RAT, LIVER, S-9, Method: PREINCUBATION) “inactive; negative”; (Test System: AMES SALMONELLA TYPHIMURIUM, Strain/Indicator: TA98, Metabolic Activation: S-9, Method: STANDARD PLATE) “inactive; negative”; under setting [2], “inactive; negative”; under setting [3], “inactive; negative”. Moreover, the mutagenic call is, setting by setting: (Test System: AMES SALMONELLA TYPHIMURIUM, Strain/Indicator: TA100, Metabolic Activation: RAT, LIVER, S-9, AROCLOR 1254, Method: STANDARD PLATE) “inactive; negative”; (Test System: AMES SALMONELLA TYPHIMURIUM, Strain/Indicator: TA100, Metabolic Activation: RAT, LIVER, S-9, AROCLOR, Method: STANDARD PLATE) “inactive; negative”; (Test System: AMES SALMONELLA TYPHIMURIUM, Strain/Indicator: TA100, Metabolic Activation: RAT, LIVER, S-9, Method: PREINCUBATION) “inactive; negative”; (Test System: AMES SALMONELLA TYPHIMURIUM, Strain/Indicator: TA100, Metabolic Activation: S-9, Method: STANDARD PLATE) “inactive; negative”; under setting [4], “inactive; negative”; (Test System: AMES SALMONELLA TYPHIMURIUM, Strain/Indicator: TA102, Metabolic Activation: RAT LIVER S-9, PHENOBARBITAL AND 5,6-BENZOFLAVONE, Method: STANDARD PLATE) “inactive; negative”. Moreover, the mutagenic call by setting is: (Test System: AMES SALMONELLA TYPHIMURIUM, Strain/Indicator: TA102, Metabolic Activation: RAT, LIVER, S-9, AROCLOR, Method: STANDARD PLATE) “inactive; negative”; (Test System: AMES SALMONELLA TYPHIMURIUM, Strain/Indicator: TA104, Metabolic Activation: NONE, Method: PREINCUBATION) “inactive; negative”; under setting [5], “inactive; negative”; (Test System: AMES SALMONELLA TYPHIMURIUM, Strain/Indicator: TA104, Metabolic Activation: RAT, LIVER, S-9, AROCLOR, Method: PREINCUBATION) “inactive; negative”; (Test System: AMES SALMONELLA TYPHIMURIUM, Strain/Indicator: TA104, Metabolic Activation: RAT, LIVER, S-9, AROCLOR, Method: STANDARD PLATE) “inactive; negative”; (Test System: AMES SALMONELLA TYPHIMURIUM, Strain/Indicator: TA2638, Metabolic Activation: RAT LIVER S-9, PHENOBARBITAL AND 5,6-BENZOFLAVONE, Method: STANDARD PLATE) “inactive; negative”. Also, the mutagenic call (Test System: E. COLI, Strain/Indicator: WP2 (PKM101), Metabolic Activation: RAT LIVER S-9, PHENOBARBITAL AND 5,6-BENZOFLAVONE, Method: STANDARD PLATE) is “inactive; negative” and the mutagenic call (Test System: E.COLI, Strain/Indicator: WP2 UVRA (PKM101), Metabolic Activation: RAT LIVER S-9, PHENOBARBITAL AND 5,6-BENZOFLAVONE, Method: STANDARD PLATE) is “inactive; negative”.

Regarding `CCN(CCCl)c1ccc(OCCCCCNc2c3ccccc3nc3ccccc23)cc1`, the mutagenic call (Test System: AMES SALMONELLA TYPHIMURIUM, Strain/Indicator: DG1588, Metabolic Activation: NONE, Method: STANDARD PLATE) was “inactive; negative”; the mutagenic call (Test System: AMES SALMONELLA TYPHIMURIUM, Strain/Indicator: DG1592, Metabolic Activation: NONE, Method: STANDARD PLATE) is “inactive; negative”; the mutagenic call (Test System: AMES SALMONELLA TYPHIMURIUM, Strain/Indicator: DG1593, Metabolic Activation: NONE, Method: STANDARD PLATE) is “active; positive”; the mutagenic call under setting [1] was “active; positive”; the mutagenic call under setting [3] is “active; positive”; the mutagenic call under setting [4] is “inactive; negative”. Besides, the mutagenic call reads like this: under setting [5], “inactive; negative”; (Test System: AMES SALMONELLA TYPHIMURIUM, Strain/Indicator: TA1535, Metabolic Activation: NONE, Method: STANDARD PLATE) “inactive; negative”; (Test System: AMES SALMONELLA TYPHIMURIUM, Strain/Indicator: TA1537 (PKM101), Metabolic Activation: NONE, Method: STANDARD PLATE) “active; positive”; (Test System: AMES SALMONELLA TYPHIMURIUM, Strain/Indicator: TA1537, Metabolic Activation: NONE, Method: STANDARD PLATE) “active; positive”; (Test System: AMES SALMONELLA TYPHIMURIUM, Strain/Indicator: TA1538, Metabolic Activation: NONE, Method: STANDARD PLATE) “inactive; negative”; (Test System: AMES SALMONELLA TYPHIMURIUM, Strain/Indicator: TA1975 (PKM101), Metabolic Activation: NONE, Method: STANDARD PLATE) “inactive; negative”. For the same compound, the mutagenic call (Test System: AMES SALMONELLA TYPHIMURIUM, Strain/Indicator: TA1975, Metabolic Activation: NONE, Method: STANDARD PLATE) was “inactive; negative”; the mutagenic call (Test System: AMES SALMONELLA TYPHIMURIUM, Strain/Indicator: TA1977, Metabolic Activation: NONE, Method: STANDARD PLATE) was “active; positive”; the mutagenic call (Test System: AMES SALMONELLA TYPHIMURIUM, Strain/Indicator: TA1978 (PKM101), Metabolic Activation: NONE, Method: STANDARD PLATE) is “active; positive”; the mutagenic call (Test System: AMES SALMONELLA TYPHIMURIUM, Strain/Indicator: TA1978, Metabolic Activation: NONE, Method: STANDARD PLATE) is “inactive; negative”; the mutagenic call (Test System: AMES SALMONELLA TYPHIMURIUM, Strain/Indicator: TA4001, Metabolic Activation: NONE, Method: STANDARD PLATE) is “active; positive”; the mutagenic call (Test System: AMES SALMONELLA TYPHIMURIUM, Strain/Indicator: TA4006, Metabolic Activation: NONE, Method: STANDARD PLATE) is “inactive; negative”.

With `C[C@@H](CN=[N+]=[N-])c1ccccc1`, the mutagenic call is “inactive; negative” under setting [2] and “active; positive” (Test System: AMES SALMONELLA TYPHIMURIUM, Strain/Indicator: TA100, Metabolic Activation: RAT, LIVER, S-9, PCB, Method: PREINCUBATION).
